Assay results as given in US6800628B2, “N-substituted 4-((-4′-aminobenzoyl)-oxymethyl)-piperidines having gastric prokinetic properties” (Janssen Pharmaceutica N.V., priority 1996, dated 2004).

Biological target: 5 HT4 receptor (Homo sapiens, UniProt Q13639)
Experiment: not given
Details: stated for prior art compounds; cited from earlier work

Chain of 5 HT4 receptor (Q13639 whole entry): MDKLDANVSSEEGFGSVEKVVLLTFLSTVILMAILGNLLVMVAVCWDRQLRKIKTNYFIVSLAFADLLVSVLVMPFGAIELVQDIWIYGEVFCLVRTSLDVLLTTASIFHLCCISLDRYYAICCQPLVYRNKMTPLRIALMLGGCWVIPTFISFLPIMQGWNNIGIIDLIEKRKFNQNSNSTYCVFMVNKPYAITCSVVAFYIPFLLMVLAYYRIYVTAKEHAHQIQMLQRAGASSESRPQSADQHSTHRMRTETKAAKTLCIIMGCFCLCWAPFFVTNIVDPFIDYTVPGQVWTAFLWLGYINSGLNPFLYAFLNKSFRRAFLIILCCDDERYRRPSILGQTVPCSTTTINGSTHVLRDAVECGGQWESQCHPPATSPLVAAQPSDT

Row | Compound | 5 HT4 receptor activity (agonistic / antagonistic)
1 | Nc1c(Cl)cc(C(=O)OCC2CCN(Cc3cccnc3)CC2)c2c1OCCO2 [5-(1-(3-pyridylmethyl)-4-piperidinyl)methyl-8-amino-7-chloro-1,4-benzo-dioxancarboxylate] | 5 HT4 receptor antagonistic activity
2 | CCCCN1CCC(OC(=O)c2cc(Cl)c(N)c3c2OCCO3)CC1 [8-amino-7-chloro-1,4-benzodioxan-5-(1-butyl-4-piperidinyl)carboxylate] | 5 HT4 receptor antagonistic activity
3 | CCCCN1CCC(COC(=O)c2cc(Cl)c(N)c3c2OCCO3)CC1 [(1-butyl-4-piperidinyl)methyl 8-amino-7-chloro-1,4-benzodioxan-5-carboxylate] | 5 HT4 receptor antagonistic activity
4 | CCCCN1CCC(COC(=O)c2cc(Cl)c(N)c3c2OCC3)CC1.Cl [(1-butyl-4-piperidinyl)methyl-4-amino-5-chloro-2,3-dihydrobenzo[b]furan-7-carboxylate hydrochloride] | 5 HT4 receptor agonistic activity
5 | CCCCN1CCC(COC(=O)c2cc(Cl)c(N)c3c2OCCC3)CC1.Cl [(1-butyl-4-piperidinyl)methyl-5-amino-6-chloro-3,4-dihydro-2-H-1-benzopyran-8-carboxylate hydrochloride] | 5 HT4 receptor antagonistic activity
6 | CCOC(=O)CCN1CCC(COC(=O)c2cc(Cl)c(N)c3c2OCCO3)CC1 [[1-(2-carbo-ethoxyethyl)-4-piperidinyl]methyl-8-amino-7-chloro-1,4-benzodioxan-5-carboxylate] | 5 HT4 receptor antagonistic activity
7 | CC(O)CCN1CCC(COC(=O)c2cc(Cl)c(N)c3c2OCCO3)CC1 (stereo not drawn) [[1-(3-hydroxybutyl)-4-piperidinyl]methyl-8-amino-7-chloro-1,4-benzodioxan-5-carboxylate] | 5 HT4 receptor antagonistic activity

Tested on: not given
Experiment: not given
Details: not given

Row | Compound | melting point [°C]
8 | COc1cc(N)c(Cl)cc1C(=O)OCC1CCN(CCCOc2ccc(F)cc2)CC1 [Compound 1, [1-[3-(4-fluorophenoxy)propyl]-4-piperidinyl]methyl 4-amino-5-chloro-2-methoxybenzoate] | 140

Tested on: conscious dogs
Experiment: Gastric emptying of an acaloric liquid test meal delayed by administration of lidamidine, in conscious dogs
Format: in vivo, beagle dogs
Details: gastric emptying of a liquid meal delayed by lidamidine in conscious dog; dose of 0.04 mg/kg of the test compound
Description: “Gastric Emptying of an Acaloric Liquid Test Meal Delayed by […] of Lidamidine, in Conscious Dogs” Test
Female beagle dogs, weighing 7-14 kg, were trained to stand quietly in Pavlov frames. They were implanted with a gastric cannula under general anaesthesia and aseptic precautions. After a median laparatomy, an incision was made through the gastric wall in the longitudinal direction between the greater and the lesser curve, 2 cm above the nerves of Latarjet. The cannula was secured to the gastric wall by means of a double purse string suture and brought out via a stab wound at the left quadrant of the hypochondrium. Dogs were allowed a recovery period of at least two weeks. […]
In the 1 ml samples of the gastric contents, the glucose concentrations were measured on a Hitachi 717 automatic analyser by the hexokinase method (Schmidt, 1961).
Curves were fitted to the measurement points (glucose vs time) using weighed non-linear regression analysis. Gastric emptying was quantified as the time needed to empty 70% of the meal (t70%). The control emptying time was calculated as the mean t70% of the last 5 solvent experiments of the same dog. Acceleration of delayed gastric emptying (Δt) was calculated as the time difference between t70% compound and t70% solvent. To correct for variations in emptying rate between dogs, Δt was expressed as % of t70% solvent (Schuurkes et al, 1992).

Row | Compound | Acceleration (Δt/t)
9 | Cc1nccnc1NCCN1CCC(COC(=O)c2cc(Cl)c(N)c3c2OC(C)(C)C3)CC1 [Compound 6, [1-[2-[(3-methyl-2-pyrazinyl)amino]ethyl]-4-piperidinyl]methyl 4-amino-5-chloro-2,3-dihydro-2,2-dimethyl-7-benzofurancarboxylate] | −0.41
